The values below come from ChEMBL document CHEMBL2010784 (ACS Med Chem Lett, 2011).

Molecules are shown by their SMILES.

The test system of this assay is Vaccinia virus. Put plainly: Antiviral activity against Vaccinia virus Lederle infected in HEL cells assessed as inhibition of viral-induced cytopathogenicity. The class given is functional, organism-based. To be noted: Orthopoxvirus vaccinia. A general note: Damage to the host cells serves as the signal in cytopathic effect assays.
As a reminder, the EC50 is the concentration needed to bring the measured effect to its halfway point. Take `C#C[C@]1(CO)S[C@@H](n2ccc(N)nc2=O)C[C@@H]1O`: the EC50 came to 6.5 µM.

With `C#C[C@]1(CO)S[C@@H](n2cnc3c(N)ncnc32)C[C@@H]1O`, the EC50 was found to be 52 µM.

Regarding `C#C[C@]1(CO)S[C@@H](n2cnc3c(=O)[nH]c(N)nc32)C[C@@H]1O`, the EC50 amounted to 27 µM.

`Nc1nc2c(ncn2COC(CO)CO)c(=O)[nH]1` [GANCICLOVIR]: the EC50 turned out to be 100 µM.
